Experimental data: US6344487B1, “Treatment of insomnia” (priority 2000, dated 2002)
Counter-ions that a name gives are not always drawn.

Columns and labels:
Type in all cases: in vivo
Details in all cases: single patient
[1] = test system: onset insomnia (chronic); assay: Treatment of patient with onset insomnia (chronic), follow up
Description: (§1) Administration of the compounds should take place within about one hour before bedtime. Again, the onset of the sedative effect will vary with the individual and the dosage prescribed.
The patient suffers from onset insomnia (chronic). At the time of consultation, they have normal affect with no depression, anxiety or substance overuse. They are prescribed mirtazapine 10 mg hs.
The patient suffers from onset insomnia (chronic). At the time of consultation, they have normal affect with no depression, anxiety or substance overuse. They are prescribed mirtazapine 7.5 mg hs.
The patient suffers from onset insomnia (chronic). At the time of consultation, they have normal affect with no depression, anxiety or substance overuse. They are prescribed mitazapine 5 mg hs.
The patient suffers from onset insomnia (chronic). At the time of consultation, they have normal affect with no depression, anxiety or substance overuse. They are prescribed mirtazapine 2 mg hs.
The patient suffers from onset insomnia (chronic). At the time of consultation, they have normal affect with no depression, anxiety or substance overuse. They are prescribed nortriptyline 10 mg hs.
The patient suffers from onset insomnia (chronic). At the time of consultation, they have normal affect with no depression, anxiety or substance overuse. They are prescribed nortriptyline 7.5 mg hs.
The patient suffers from onset insomnia (chronic). At the time of consultation, they have normal affect with no depression, anxiety or substance overuse. They are prescribed nortriptyline 5 mg hs.
The patient suffers from onset insomnia (chronic). At the time of consultation, they have normal affect with no depression, anxiety or substance overuse. They are prescribed nortriptyline 2 mg hs.

[2] = test system: onset insomnia (non-chronic); assay: Treatment of patient with onset insomnia (non-chronic), follow up
Description: as §1
The patient suffers from onset insomnia (non-chronic). At the time of consultation, they have normal affect with no depression, anxiety or substance overuse. They are prescribed mirtazapine 10 mg hs.
The patient suffers from onset insomnia (non-chronic). At the time of consultation, they have normal affect with no depression, anxiety or substance overuse. They are prescribed mirtazapine 7.5 mg hs.
The patient suffers from onset insomnia (non-chronic). At the time of consultation, they have normal affect with no depression, anxiety or substance overuse. They are prescribed mitazapine 5 mg hs.
The patient suffers from onset insomnia (non-chronic). At the time of consultation, they have normal affect with no depression, anxiety or substance overuse. They are prescribed mirtazapine 2 mg hs.
The patient suffers from onset insomnia (non-chronic). At the time of consultation, they have normal affect with no depression, anxiety or substance overuse. They are prescribed nortriptyline 10 mg hs.
The patient suffers from onset insomnia (non-chronic). At the time of consultation, they have normal affect with no depression, anxiety or substance overuse. They are prescribed nortriptyline 7.5 mg hs.
The patient suffers from onset insomnia (non-chronic). At the time of consultation, they have normal affect with no depression, anxiety or substance overuse. They are prescribed nortriptyline 5 mg hs.
The patient suffers from onset insomnia (non-chronic). At the time of consultation, they have normal affect with no depression, anxiety or substance overuse. They are prescribed nortriptyline 2 mg hs.

[3] = test system: insomnia, possibly due to a desynchronization of circadian rhythms ("jet-lag"); assay: Treatment of business traveler with insomnia possibly due to desynchronization of circadian rhythms (jet-lag), follow up
Description: as §1
The patient, a business traveler, suffers from insomnia, possibly due to a desynchronization of circadian rhythms (“jet-lag”). At the time of consultation, they have normal affect with no depression, anxiety or substance overuse. They are prescribed mirtazapine 10 mg hs.
The patient, a business traveler, suffers from insomnia, possibly due to a desynchronization of circadian rhythms (“jet-lag”). At the time of consultation, they have normal affect with no depression, anxiety or substance overuse. They are prescribed mirtazapine 7.5 mg hs.
The patient, a business traveler, suffers from insomnia, possibly due to a desynchronization of circadian rhythms (“jet-lag”). At the time of consultation, they have normal affect with no depression, anxiety or substance overuse. They are prescribed mirtazapine 5 mg hs.
The patient, a business traveler, suffers from insomnia, possibly due to a desynchronization of circadian rhythms (“jet-lag”). At the time of consultation, they have normal affect with no depression, anxiety or substance overuse. They are prescribed mirtazapine 2 mg hs.
The patient, a business traveler, suffers from insomnia, possibly due to a desynchronization of circadian rhythms (“jet-lag”). At the time of consultation, they have normal affect with no depression, anxiety or substance overuse. They are prescribed nortriptyline 10 mg hs.
The patient, a business traveler, suffers from insomnia, possibly due to a desynchronization of circadian rhythms (“jet-lag”). At the time of consultation, they have normal affect with no depression, anxiety or substance overuse. They are prescribed nortriptyline 7.5 mg hs.
The patient, a business traveler, suffers from insomnia, possibly due to a desynchronization of circadian rhythms (“jet-lag”). At the time of consultation, they have normal affect with no depression, anxiety or substance overuse. They are prescribed nortriptyline 5 mg hs.
The patient, a business traveler, suffers from insomnia, possibly due to a desynchronization of circadian rhythms (“jet-lag”). At the time of consultation, they have normal affect with no depression, anxiety or substance overuse. They are prescribed nortriptyline 2 mg hs.

[4] = test system: maintenance insomnia (non-chronic); assay: Treatment of patient with maintenance insomnia (non-chronic), follow up
Description: as §1
The patient suffers from maintenance insomnia (non-chronic) At the time of consultation, they have normal affect with no depression, anxiety or substance overuse. They are prescribed mirtazapine 10 mg hs.
The patient suffers from maintenance insomnia (non-chronic) At the time of consultation, they have normal affect with no depression, anxiety or substance overuse. They are prescribed mirtazapine 7.5 mg hs.
The patient suffers from maintenance insomnia (non-chronic) At the time of consultation, they have normal affect with no depression, anxiety or substance overuse. They are prescribed mirtazapine 5 mg hs.
The patient suffers from maintenance insomnia (non-chronic) At the time of consultation, they have normal affect with no depression, anxiety or substance overuse. They are prescribed mirtazapine 2 mg hs.
The patient suffers from maintenance insomnia (non-chronic). At the time of consultation, they have normal affect with no depression, anxiety or substance overuse. They are prescribed nortriptyline 10 mg hs.
The patient suffers from maintenance insomnia (non-chronic). At the time of consultation, they have normal affect with no depression, anxiety or substance overuse. They are prescribed nortriptyline 7.5 mg hs.
The patient suffers from maintenance insomnia (non-chronic) At the time of consultation, they have normal affect with no depression, anxiety or substance overuse. They are prescribed nortriptyline 5 mg hs.
The patient suffers from maintenance insomnia (non-chronic) At the time of consultation, they have normal affect with no depression, anxiety or substance overuse. They are prescribed nortriptyline 2 mg hs.

[5] = test system: maintenance insomnia (chronic); assay: Treatment of patient with maintenance insomnia (chronic), follow up
Description: as §1
The patient suffers from maintenance insomnia (chronic). At the time of consultation, they have normal affect with no depression, anxiety or substance overuse. They are prescribed mirtazapine 10 mg hs.
The patient suffers from maintenance insomnia (chronic). At the time of consultation, they have normal affect with no depression, anxiety or substance overuse. They are prescribed mirtazapine 7.5 mg hs.
The patient suffers from maintenance insomnia (chronic). At the time of consultation, they have normal affect with no depression, anxiety or substance overuse. They are prescribed mirtazapine 5 mg hs.
The patient suffers from maintenance insomnia (chronic). At the time of consultation, they have normal affect with no depression, anxiety or substance overuse. They are prescribed mirtazapine 2 mg hs.
The patient suffers from maintenance insomnia (chronic). At the time of consultation, they have normal affect with no depression, anxiety or substance overuse. They are prescribed nortriptyline 10 mg hs.
The patient suffers from maintenance insomnia (chronic). At the time of consultation, they have normal affect with no depression, anxiety or substance overuse. They are prescribed nortriptyline 7.5 mg hs.
The patient suffers from maintenance insomnia (chronic). At the time of consultation, they have normal affect with no depression, anxiety or substance overuse. They are prescribed nortriptyline 5 mg hs.
The patient suffers from maintenance insomnia (chronic). At the time of consultation, they have normal affect with no depression, anxiety or substance overuse. They are prescribed nortriptyline 2 mg hs.

Compound	relief of onset insomnia at follow up ([1]; 2 mg hs)	relief of onset insomnia at follow up ([1]; 5 mg hs)	relief of onset insomnia at follow up ([1]; 7.5 mg hs)	relief of onset insomnia at follow up ([1]; 10 mg hs)	relief of onset insomnia at follow up ([2]; 2 mg hs)	relief of onset insomnia at follow up ([2]; 5 mg hs)	relief of onset insomnia at follow up ([2]; 7.5 mg hs)	relief of onset insomnia at follow up ([2]; 10 mg hs)	relief of insomnia at follow up ([3]; 2 mg hs)	relief of insomnia at follow up ([3]; 5 mg hs)	relief of insomnia at follow up ([3]; 7.5 mg hs)	relief of insomnia at follow up ([3]; 10 mg hs)	relief of insomnia at follow up ([4]; 2 mg hs)	relief of insomnia at follow up ([4]; 5 mg hs)	relief of insomnia at follow up ([4]; 7.5 mg hs)	relief of insomnia at follow up ([4]; 10 mg hs)	relief of insomnia at follow up ([5]; 2 mg hs)	relief of insomnia at follow up ([5]; 5 mg hs)	relief of insomnia at follow up ([5]; 7.5 mg hs)	relief of insomnia at follow up ([5]; 10 mg hs)
CN1CCN2c3ncccc3Cc3ccccc3C2C1 (stereo not shown) [mirtazapine, 1,2,3,4,10,14b-hexahydro-2-methylpyrazino [2,1-a]pyrido [2,3-c]benzazepine]	relieves the onset insomnia and has them sleeping well	relieves the onset insomnia and has them sleeping well	relieves the onset insomnia and has them sleeping well	relieves the onset insomnia and has their sleeping well	relieves the onset insomnia and has them sleeping well	relieves the onset insomnia and has them sleeping well	relieves the onset insomnia and has them sleeping well	relieves the onset insomnia and has their sleeping well	relieves the insomnia and has them sleeping well	relieves the insomnia and has them sleeping well	relieves the insomnia and has them sleeping well	relieves the insomnia and has their sleeping well	relieves the insomnia and has them sleeping well	relieves the insomnia and has them sleeping well	relieves the insomnia and has them sleeping well	relieves the insomnia and has their sleeping well	relieves the insomnia and has them sleeping well	relieves the insomnia and has them sleeping well	relieves the insomnia and has them sleeping well	relieves the insomnia and has their sleeping well
CNCCC=C1c2ccccc2CCc2ccccc21 [nortriptyline, 1 propanamine,3-(10,11-dihydro-5H-dibenzo[a,d]cyclohepten-5-ylidene)-N-methyl-, hydrochloride]	relieves the onset insomnia and has their sleeping well	relieves the onset insomnia and has them sleeping well	relieves the onset insomnia and has them sleeping well	relieves the onset insomnia and has their sleeping well	relieves the onset insomnia and has their sleeping well	relieves the onset insomnia and has them sleeping well	relieves the onset insomnia and has them sleeping well	relieves the onset insomnia and has their sleeping well	relieves the insomnia and has their sleeping well	relieves the insomnia and has them sleeping well	relieves the insomnia and has them sleeping well	relieves the insomnia and has their sleeping well	relieves the insomnia and has their sleeping well	relieves the insomnia and has them sleeping well	relieves the insomnia and has them sleeping well	relieves the insomnia and has their sleeping well	relieves the insomnia and has their sleeping well	relieves the insomnia and has them sleeping well	relieves the insomnia and has them sleeping well	relieves the insomnia and has their sleeping well
